Holding throughout (experiment): Greenhouse trial: effect of adjuvants on activity of glyphosate IPA (fresh weight)
Assay type in all cases: in vivo

Assay [1] concerns Solanum nigrum L. (SOLNI). The note with it: fresh weight relative to untreated plant, 14 days after application; 20.3 g a.e./ha glyphosate IPA; adjuvant 0.25 wt % in spray solution. The protocol: (§1) For the purpose of determining the biological activity, greenhouse trials were carried out with glyphosate on Echinochloa crus-galli (L.) Beauv. (ECHCG), Cirsium arvense L. (CIRAR), and Solanum nigrum L. (SOLNI). The plants were cultivated in a greenhouse under 14 hours of irradiation with light at a temperature of 19/14 (±0.5°) C. (day/night) and a relative humidity of 70/80 (±5)% (day/night). The light was supplied via high-pressure sodium lamps, high-pressure mercury lamps, and fluorescent tubes, producing a power of 70 W/m^2 at the leaf level. The plants were grown in 12 cm diameter plastic pots filled with a mixture of sand and humus in a sand:humus ratio of 1:2 by volume.
(§2) The pots were placed on an under-soil watering mat, which was wetted daily with a medium-strength nutrient solution. Following their appearance at the substrate surface, seedlings were thinned out to five (ECHCG), two (CIRAR), or one (SOLNI) plant per pot for the activity tests.
(§3) The spray solutions were applied using a laboratory sprayer operated with compressed air and fitted with a Teejet TP8003E nozzle at an application rate of 200 l/ha to the plants at 303 kPa. ECHCG was treated at the two- to three-leaf stage; CIRAR and SOLNI were treated at the four-leaf stage.
(§4) For the more differentiated examination of the adjuvant effect, the glyphosate active ingredient was underdosed, meaning that the plants are not completely killed. This was done using aqueous solutions of glyphosate-isopropylammonium salt (glyphosate IPA). The amount of glyphosate used was 33.8 g a.e./ha glyphosate IPA (corresponding to 1.0 mmol or 0.17 g a.e./l for a liquid volume of […]) in the case of ECHCG, and at 20.3 g a.e./ha glyphosate IPA (corresponding to […] or 0.10 g a.e./l at a liquid volume of 200 l/ha) for CIRAR and SOLNI. […]
(§5) The activity of the various adjuvants was assessed 14 days after application, by determining the mass of the plant parts still present (fresh weight; FW), and was reported as a percentage fraction, relative to the untreated plant (Table 3).

In assay [2] the test system is Echinochloa crus-galli (L.) Beauv. (ECHCG). As to conditions: fresh weight relative to untreated plant, 14 days after application; 33.8 g a.e./ha glyphosate IPA; adjuvant 0.25 wt % in spray solution. The method, then: as §1, §2, §3, §4, §5
Assay [3] concerns Cirsium arvense L. (CIRAR). As to conditions: fresh weight relative to untreated plant, 14 days after application; 20.3 g a.e./ha glyphosate IPA; adjuvant 0.25 wt % in spray solution. The method, then:
as §1, §2, §3, §4, §5

Take “glyphosate-isopropylammonium salt [Glyphosate IPA]”: the “FW in % (SOLNI)” value in assay [1] is on record as 84.5%. Further, in assay [2], the “FW in % (ECHCG)” value was 74.3%. Moreover, the “FW in % (CIRAR)” value in assay [3] came out at 95.9%.

The record behind these values is patent US10772324B2, “Aqueous adjuvant-compositions” (CLARIANT FINANCE (BVI) LIMITED, priority 2012, dated 2020).
